Structures can show the parent of a compound that is named as a salt.
Test: Solubility of dicyclohexylamine salts: amounts of solvents needed to dissolve each compound at reflux
Format: physicochemical
Settings: amounts approximate, same quantity of each compound
From the text: In particular, the amounts of solvents needed to dissolve each compound at reflux are provided.
The amounts of solvents needed to dissolve the salts are approximate.

| Structure (SMILES) | amount of solvent needed to dissolve the compound at reflux (acetone) | amount of solvent needed to dissolve the compound at reflux (isopropyl acetate) |
| --- | --- | --- |
| COC(=O)c1ccccc1CC[C@@H](SCC1(CC(=O)O)CC1)c1cccc(/C=C/c2ccc3ccc(Cl)cc3n2)c1 [R = —CO2CH3] | 50 volumes acetone | 20 volumes isopropyl acetate |
| CC(=O)c1ccccc1CC[C@@H](SCC1(CC(=O)O)CC1)c1cccc(/C=C/c2ccc3ccc(Cl)cc3n2)c1 [IIa, (R)-(E)-1-(((1-(3-(2-(7-chloro-2-quinolinyl)ethenyl)phenyl)-3-(2-acetylphenyl)propyl)thio)methyl)cyclopropane acetic acid dicyclohexylamine salt] | 100 volumes acetone | 45 volumes isopropyl acetate |
